Reference: EPA's ToxValDB 9.5 (doi:10.2903/j.efsa.2008.175r)
In brackets after ≈: the same amount, converted by molar mass.

What was measured:
Colinus virginianus = settings: acute; oral; mortality
Rattus norvegicus = settings: for NOAEL: reproduction developmental, reproduction
Coturnix coturnix = settings: reproduction developmental
Canidae = settings: oral, Dog Other, organ weight
Plant = settings: not reported; seedling emergence
Daphnia magna = settings: chronic/long-term; duration: 21 days; reproduction
Pimephales promelas = settings: chronic/long-term; duration: 30 days
Folsomia candida = settings: chronic/long-term; duration: 4 weeks
Bibionidae = settings: chronic/long-term
Anas platyrhynchos = settings: for LD50: oral, mortality
Oncorhynchus mykiss = settings: acute; duration: 96 hours; mortality
Typhlodromus pyri = assay: LR50; higher = less toxic; settings: not reported; mortality

## NC(Cc1ncn[nH]1)C(=O)O (configuration not stated) [1,2,4-Triazole-3-alanine]
Colinus virginianus
  LD50: > 1340 mg/kg-day
Rattus norvegicus; acute, oral, mortality
  LD50: > 5000 mg/kg-day
Rattus norvegicus
  NOAEL: 100 mg/kg-day

## c1nc[nH]n1 [1H-1,2,4-Triazole]
Coturnix coturnix
  NOEL: > 316 mg/kg-day

## CCCC(Cn1cncn1)c1ccc(Cl)cc1Cl (configuration not stated) [Penconazole]
Canidae; chronic, duration: 1 years
  NOAEL: 3 mg/kg-day
Canidae; subchronic, duration: 90 days
  NOAEL: 3 mg/kg-day
Plant
  LEL: 30 g/ha
Daphnia magna
  NOEC: 0.06 mg/L
Pimephales promelas
  NOEC: 0.32 mg/L
Rattus norvegicus
  NOAEL: 20 mg/kg-day
Tagia sp.; acute, duration: 14 days, mortality
  LC50: > 663 mg/kg
Tagia sp.; chronic/long-term, duration: 56 days
  NOEC: > 0.34 mg/kg
Folsomia candida
  NOEC: 98.8 mg/kg
Bibionidae
  NOEC: 25.2 mg/kg
Bibionidae; duration: 28 days
  NOEC: 0.8 mg/L
Oryctolagus sp.; acute, oral, mortality
  LD50: 971 mg/kg-day
Oryctolagus sp.; developmental, development
  NOAEL: 50 mg/kg-day
Anas platyrhynchos; acute, unspecified
  LD50: > 1590 mg/kg-day
Anas platyrhynchos; reproductive
  NOEL: 28.6 mg/kg-day
Anas platyrhynchos; short-term, feed
  LD50: > 1840 mg/kg-day
Oncorhynchus mykiss
  LC50: 1.13 µg/mL (≈ 3.98 µM)
Typhlodromus pyri
  LR50: 100 g/ha
